This is an account of results in paper PMC9204756 (2022).

Assay [1] relates to FMN RT RNA (FMN riboswitch in structure cassette) (RNA, riboswitch) GGGCCUUCGGGCCAAUGUAUCCUUCGGGGCAGGGUGGAAAUCCCGACCGGCGGUAGUAAAGCACAUUUGCUUUAGAGCCCGUGACCCGUGUGCAUAAGCACGCGGUGGAUUCAGUUUAAGCUGAAGCCGACAGUGAAAGUCUGGAUGGGAGAAGGAUGAUCGAUCCGGUUCGCCGGAUCCAAAUCGGGCUUCGGUCCGGUUC
Put plainly: SHAPE (NAI). Particulars: 15 mM MgCl2, 100 mM KCl; 50 mM HEPES pH 8.0, 37 °C; 100 μM compound.

Assay [2] relates to FMN riboswitch aptamer (FMN RNA) (RNA, riboswitch) GGGUGUAUCCUUCGGGGCAGGGUGGAAAUCCCGACCGGCGGUAGUAAAGCACAUUUGCUUUAGAGCCCGUGACCCGUGUGCAUAAGCACGCGGUGGAUUCAGUUUAAGCUGAAGCCGACAGUGAAAGUCUGGAUGGGAGAAGGAUGA
The experiment in a line: competitive photoaffinity labeling, microplate reader fluorescence. Conditions: displaces probe 1.

For assay [3] the test system is unchanged. Put plainly: competitive photoaffinity labeling, PAGE. Particulars: displaces probe 1 (10 μM), UV cross-linked, fluorescein-azide click.
For assay [4] the test system is unchanged. The experiment in a line: photoaffinity labeling, Cy5 click fluorescence. Conditions: covalent, 10 μM probe.
In assay [5] the test system is FMN RT RNA (FMN riboswitch in structure cassette) (RNA, riboswitch) GGGCCUUCGGGCCAAUGUAUCCUUCGGGGCAGGGUGGAAAUCCCGACCGGCGGUAGUAAAGCACAUUUGCUUUAGAGCCCGUGACCCGUGUGCAUAAGCACGCGGUGGAUUCAGUUUAAGCUGAAGCCGACAGUGAAAGUCUGGAUGGGAGAAGGAUGAUCGAUCCGGUUCGCCGGAUCCAAAUCGGGCUUCGGUCCGGUUC
Put plainly: reverse transcription termination after photo-cross-linking. Particulars: covalent; folding buffer, 37 °C; 10 μM probe, 2 μM RNA; stops competed by FMN.

Assay [6] relates to FMN riboswitch aptamer (FMN RNA) (RNA, riboswitch) GGGUGUAUCCUUCGGGGCAGGGUGGAAAUCCCGACCGGCGGUAGUAAAGCACAUUUGCUUUAGAGCCCGUGACCCGUGUGCAUAAGCACGCGGUGGAUUCAGUUUAAGCUGAAGCCGACAGUGAAAGUCUGGAUGGGAGAAGGAUGA
Put plainly: photoaffinity labeling, Cy5 click fluorescence and PAGE. Particulars: covalent; 10 μM probe; competed out by 10 μM FMN.

For `Cc1cc2nc3c(=O)[nH]c(=O)nc-3n(C[C@H](O)[C@H](O)[C@H](O)COP(=O)(O)O)c2cc1C`, the binding entry in assay [1] is reported as “yes”. The “apparent IC50” value in assay [2] and in assay [3] was 400 ± 10 nM in each case.

As for `C#CC[C@@H](C(=O)NCCc1ccc(N=[N+]=[N-])cc1)N(CCCC(=O)O)CCn1c2nc(=O)[nH]c(=O)c-2nc2cc(C)c(C)cc21`, the binding result in assay [4] is “yes”.

Turning to `C#CC[C@@H](C(=O)NCCC1(C)N=N1)N(CCCC(=O)O)CCn1c2nc(=O)[nH]c(=O)c-2nc2cc(C)c(C)cc21`, the binding entry in assay [1], in assay [5] and in assay [6] was “yes” each time.

`Cc1cc2nc3c(=O)[nH]c(=O)nc-3n(C[C@H](O)[C@H](O)[C@H](O)CO)c2cc1N(C)C`: the “apparent IC50” value in assay [3] is 7000 ± 180 nM.

As to `C#CC[C@@H](C(=O)NCCc1ccc(C(=O)c2ccccc2)cc1)N(CCCC(=O)O)CCn1c2nc(=O)[nH]c(=O)c-2nc2cc(C)c(C)cc21`, the binding entry in assay [4] (low click efficiency not excluded) was “weak”.
